This experiment deals with Bordetella pertussis. The experiment can be described thus: microbe, parasite or virus in culture. Conditions: for activity at 20000 µM / activity at 2000 µM / activity at 0.6 µg/mL / activity at 6 µg/mL / activity at 0.1 µg/mL / activity at 1 µg/mL / activity at 6000 µg/mL / activity at 1330 µM / activity at 250 µM / activity at 2500 µM / activity at 0.2 µg/mL / activity at 2 µg/mL: Bordetella pertussis; for Effect on growth rate in comparison to a minimally identified medium: no concentration stated. The experiment is classed as cell-based. On the procedure:
Cells were harvested by centrifugation, washed twice with NaCl 0.9% (w/v), and resuspended in fresh medium (de novo minimal CDM; see composition in Table 1) at a theoretical OD650 nm of 0.5, as calculated from the OD650 nm of the culture before harvest. 20 μl of this cell suspension were used to inoculate each well of a 96-well microtiter plate filled with 180 μl of de novo minimal CDM. Only the inner wells of the plate were used for cultures, in order to minimize evaporation, and two controls were included, in which the supplement solution was replaced with water.
The plate was then incubated for 7 days at 35° C. in a Biotek Synergy H1 reader with constant shaking, and growth was automatically monitored every 10 minutes as OD650 nm.
The relative growth yield and growth rate for each supplement was then averaged over the three independent repeats, and the standard deviation was calculated.

The mark [1] stands for this setting: 168 h, read-out: Relative yield Average, 20 mM in medium, max OD650 nm relative to water controls.
[2] abbreviates: read-out: Relative growth rate Average, 2 mM in medium, first generation, relative to water controls.
Setting [3] is: read-out: Relative growth rate Average, 20 mM in medium, first generation, relative to water controls.
[4] abbreviates: 168 h, read-out: Relative yield Average, 2 mM in medium, max OD650 nm relative to water controls.
The mark [5] stands for this setting: 1.89 mg/L in medium, first generation, relative to water controls.
Where [6] appears, read: 1.89 mg/L in medium, max OD650 nm relative to water controls.
The mark [7] stands for this setting: 18.9 mg/L in medium, first generation, relative to water controls.
Where [8] appears, read: 18.9 mg/L in medium, max OD650 nm relative to water controls.
The mark [9] stands for this setting: 2 mM in medium, first generation, relative to water controls.
Setting [10] is: 2 mM in medium, max OD650 nm relative to water controls.
[11] abbreviates: 20 mM in medium, first generation, relative to water controls.
[12] abbreviates: 20 mM in medium, max OD650 nm relative to water controls.
The mark [13] stands for this setting: 168 h, read-out: Relative yield Average, 1.33 mM in medium, max OD650 nm relative to water controls.
Setting [14] is: read-out: Relative growth rate Average, 1.33 mM in medium, first generation, relative to water controls.
Setting [15] is: 1 mM in medium, first generation, relative to water controls.
[16] abbreviates: 1 mM in medium, max OD650 nm relative to water controls.

Where two headings read alike, the source gives them in different places.

For `CSCC[C@H](N)C(=O)O` [L-Methionine], the activity at 20000 µM runs as follows: under setting [1], over 105%; under setting [3], over 105%. The activity at 2000 µM under setting [2] is over 105%.
Take `NCC(=O)O` [Glycine]: the activity at 2000 µM under setting [4] lay within 95 to 105% and the activity at 2000 µM under setting [2] is over 105%. Also, the activity at 20000 µM under setting [3] was over 105%.
For the compound `C[N+](C)(C)CCO.[Cl-]` [Choline chloride], the activity at 0.6 µg/mL runs as follows: (168 h, read-out: Relative yield Average, 0.6 mg/L in medium, max OD650 nm relative to water controls) 95 to 105%; (read-out: Relative growth rate Average, 0.6 mg/L in medium, first generation, relative to water controls) 95 to 105%. In addition, the activity at 6 µg/mL reads like this: (168 h, read-out: Relative yield Average, 6 mg/L in medium, max OD650 nm relative to water controls) 95 to 105%; (read-out: Relative growth rate Average, 6 mg/L in medium, first generation, relative to water controls) 95 to 105%.
Regarding `Nc1ncnc2nc[nH]c12` [Adenine], the activity at 0.1 µg/mL fell in the range of 95 to 105% (168 h, read-out: Relative yield Average, 0.1 mg/L in medium, max OD650 nm relative to water controls) and 95 to 105% (read-out: Relative growth rate Average, 0.1 mg/L in medium, first generation, relative to water controls). Moreover, the activity at 1 µg/mL (168 h, read-out: Relative yield Average, 1 mg/L in medium, max OD650 nm relative to water controls) is 95 to 105% and the activity at 1 µg/mL (read-out: Relative growth rate Average, 1 mg/L in medium, first generation, relative to water controls) was in the range of 95 to 105%.
`O.O.O.O.O.O.O.O=S(=O)([O-])[O-].[Zn+2]` [ZnSO4•7H2O]: the “Relative growth rate Average” value came to 91.58% under setting [5] and 99.13% under setting [7]. Also, the “Relative yield Average” value by setting is: under setting [6], 191.76%; under setting [8], 163.55%.
`N=C(N)NCCC[C@H](N)C(=O)O` [L-Arginine]: the “Effect on growth rate in comparison to a minimally identified medium” value is “positive effect”. The activity at 2000 µM under setting [4] was over 105%. Besides, the activity at 2000 µM under setting [2] is over 105%. Under setting [3], the activity at 20000 µM is over 105%.
Regarding `O=C([O-])/C=C/C(=O)[O-].[Na+].[Na+]` [Disodium Fumarate], the “Relative growth rate Average” value stood at 97.72% under setting [9] and 86.72% under setting [11]. The “Relative yield Average” value worked out at 107.14% under setting [10] and 171.26% under setting [12].
Take `OC[C@H]1O[C@@](CO)(O[C@H]2O[C@H](CO)[C@@H](O)[C@H](O)[C@H]2O)[C@@H](O)[C@@H]1O` [Sucrose]: the activity at 6000 µg/mL is over 105% (168 h, read-out: Relative yield Average, 6 g/L in medium, max OD650 nm relative to water controls) and 95 to 105% (read-out: Relative growth rate Average, 6 g/L in medium, first generation, relative to water controls).
Consider `NC(=O)CC[C@H](N)C(=O)O` [L-Glutamine], for which the activity at 2000 µM by setting is: under setting [4], 95 to 105%; under setting [2], 95 to 105%. In addition, the activity at 20000 µM under setting [1] is over 105% and the activity at 20000 µM under setting [3] is under 95%.
As for `CC(C)C[C@H](N)C(=O)O` [L-Leucine], the activity at 1330 µM is, setting by setting: under setting [13], 95 to 105%; under setting [14], 95 to 105%.
With `O=C[O-].[Na+]` [Sodium formate], the “Relative growth rate Average” value runs as follows: under setting [9], 97.36%; under setting [11], 89.12%. In addition, the “Relative yield Average” value reads like this: under setting [10], 143.35%; under setting [12], 168.28%.
Consider `CC(=O)[O-].[Na+]` [Sodium acetate], for which the “Relative growth rate Average” value reads like this: (5 mM in medium, first generation, relative to water controls) 101.45%; (50 mM in medium, first generation, relative to water controls) 71.40%. In addition, the “Relative yield Average” value is listed as 99.15% (5 mM in medium, max OD650 nm relative to water controls) and 152.20% (50 mM in medium, max OD650 nm relative to water controls).
`O.O=S(=O)([O-])[O-].[Mn+2]` [MnSO4•H2O]: the “Relative growth rate Average” value is recorded as 91.27% under setting [5] and 47.58% under setting [7]. For the same compound, the “Relative yield Average” value is, setting by setting: under setting [6], 109.53%; under setting [8], 91.55%.
For the compound `O.O.O.O.O.O.[Cl-].[Cl-].[Mg+2]` [MgCl2•6H2O], the “Relative growth rate Average” value by setting is: under setting [15], 99.38%; (10 mM in medium, first generation, relative to water controls) 106.39%. The “Relative yield Average” value worked out at 102.26% under setting [16] and 222.99% (10 mM in medium, max OD650 nm relative to water controls).
Consider `O.O.[Na+].[Na+].[O]=[Mo](=[O])([O-])[O-]` [Na2MoO4•2H2O], for which the “Relative growth rate Average” value by setting is: (0.94 mg/L in medium, first generation, relative to water controls) 86.76%; (9.4 mg/L in medium, first generation, relative to water controls) 91.79%. In addition, the “Relative yield Average” value is reported as 101.96% (0.94 mg/L in medium, max OD650 nm relative to water controls) and 105.65% (9.4 mg/L in medium, max OD650 nm relative to water controls).
As for `O=C(O)[C@@H]1CCCN1` [L-Proline], the activity at 2000 µM under setting [4] is 95 to 105%. Besides, the activity at 20000 µM under setting [1] was over 105%.
On to `N[C@@H](CS)C(=O)O` [L-Cysteine], for which the activity at 250 µM was 158% (168 h, read-out: Relative yield Average, 0.25 mM in medium, max OD650 nm relative to water controls) and 155% (read-out: Relative growth rate Average, 0.25 mM in medium, first generation, relative to water controls). Besides, the activity at 2000 µM under setting [4] is over 105% and the activity at 2000 µM under setting [2] was over 105%. In addition, the activity at 2500 µM reads like this: (168 h, read-out: Relative yield Average, 2.5 mM in medium, max OD650 nm relative to water controls) 212%; (read-out: Relative growth rate Average, 2.5 mM in medium, first generation, relative to water controls) 146%. In addition, the activity at 20000 µM under setting [1] was over 105% and the activity at 20000 µM under setting [3] is over 105%.
On to `O.O.O.O.O.O.[Cl-].[Cl-].[Co+2]` [CoCl2•6H2O], for which the “Relative growth rate Average” value (0.42 mg/L in medium, first generation, relative to water controls) stood at 93.44% and the “Relative growth rate Average” value (4.2 mg/L in medium, first generation, relative to water controls) is recorded as 46.12%. Moreover, the “Relative yield Average” value (0.42 mg/L in medium, max OD650 nm relative to water controls) came out at 103.04% and the “Relative yield Average” value (4.2 mg/L in medium, max OD650 nm relative to water controls) was determined as 149.59%.
As for `CC(O)CC(=O)[O-].[Na+]` (racemic) [Sodium DL-beta-hydroxybutyrate], the “Relative growth rate Average” value runs as follows: under setting [9], 100.28%; under setting [11], 94.37%. Also, the “Relative yield Average” value is, setting by setting: under setting [10], 96.73%; under setting [12], 145.46%.
For `Nc1ccc(C(=O)O)cc1` [para-aminobenzoic acid], the activity at 0.2 µg/mL was 95 to 105% (168 h, read-out: Relative yield Average, 0.2 mg/L in medium, max OD650 nm relative to water controls) and over 105% (read-out: Relative growth rate Average, 0.2 mg/L in medium, first generation, relative to water controls). The activity at 2 µg/mL is, setting by setting: (168 h, read-out: Relative yield Average, 2 mg/L in medium, max OD650 nm relative to water controls) 95 to 105%; (read-out: Relative growth rate Average, 2 mg/L in medium, first generation, relative to water controls) 95 to 105%.
For the compound `CC[C@H](C)[C@H](N)C(=O)O` [L-Isoleucine], the “Effect on growth rate in comparison to a minimally identified medium” value is listed as “negative effect”. Moreover, the activity at 2000 µM under setting [4] was under 95%. For the same compound, the activity at 20000 µM under setting [1] was under 95%. In addition, the activity at 2000 µM under setting [2] was under 95%.
`OCC(O)CO` [Glycerol]: the activity at 2000 µM reads like this: under setting [4], 95 to 105%; under setting [2], 95 to 105%. Also, the activity at 20000 µM under setting [1] is over 105% and the activity at 20000 µM under setting [3] was under 95%.
`N[C@@H](Cc1ccccc1)C(=O)O` [L-Phenylalanine]: the activity at 1330 µM under setting [13] was under 95% and the activity at 1330 µM under setting [14] was under 95%.
Consider `C[C@@H](O)[C@H](N)C(=O)O` [L-Threonine], for which the activity at 2000 µM was 95 to 105% under setting [4] and under 95% under setting [2]. Also, the activity at 20000 µM under setting [1] is under 95%.
Regarding `Cl.N` [NH4Cl], the “Relative growth rate Average” value under setting [15] was found to be 98.56%. The “Relative yield Average” value under setting [16] was found to be 104.80%.
On to `[I-].[K+]` [Potassium iodide], for which the “Relative growth rate Average” value came out at 94.69% (0.47 mg/L in medium, first generation, relative to water controls) and 99.91% (4.7 mg/L in medium, first generation, relative to water controls). In addition, the “Relative yield Average” value runs as follows: (0.47 mg/L in medium, max OD650 nm relative to water controls) 101.89%; (4.7 mg/L in medium, max OD650 nm relative to water controls) 104.26%.
For `O=C([O-])O.[Na+]` [NaHCO3], the “Relative yield Average” value under setting [10] was 102.33%.
